Laboratory results: patent publication US9354225B2 (priority 2009, dated 2016)
Read-outs that look alike come from different tables or passages of the source.

System: PrPsc signal in buffy coat (scrapie blood leukocytes)
Assay type: cell-based, sheep
Conditions: for PrPsc signal from the buffy coat (OD): additive 5 mM final in whole blood at collection, stored 24 h at 4° C. or room temperature; for preservation of the PrPsc harbored in the buffy coat of blood: scrapie sheep of both ARQ/ARQ and VRQ/VRQ genotypes, additive in blood, stored for at least 24 h
[1] = pre-clinical scrapie sheep #1 (ARQ/ARQ), FIG. 1
[2] = pre-clinical scrapie sheep #2 (ARQ/ARQ), FIG. 2

| Compound | PrPsc signal from the buffy coat (OD) [1] | PrPsc signal from the buffy coat (OD) [2] | preservation of the PrPsc harbored in the buffy coat of blood | detection signal in buffy coat fractions of blood samples (scrapie animals, samples processed 24 hours post-collection) | percentage loss of PrPsc signal relative to sample processed immediately |
| --- | --- | --- | --- | --- | --- |
| O=C(O)CN(CCOCCOCCN(CC(=O)O)CC(=O)O)CC(=O)O [EGTA, ethylene glycol tetraacetic acid] | preserve the PrPsc signal | preserve the PrPsc signal | allow for the preservation of the PrPsc | – | – |
| N[C@@H](CCC(=O)N[C@@H](CS)C(=O)NCC(=O)O)C(=O)O [L-glutathione (reduced)] | preserve the PrPsc signal | preserve the PrPsc signal | allow for the preservation of the PrPsc | can preserve the detection signal | – |
| oxidized L-glutathione | – | – | – | – | lack of effect |
